According to patent US6872557B1, “Gene encoding novel human secretory phospholipase A2” (Shionogi & Co., Ltd., priority 1999, dated 2005):

Assays:
[1] = molecular target: T1, human IIA type secretory PLA2 (Homo sapiens, UniProt P14555); assay: Inhibition of secretory PLA2 activity, release of 14C-oleic acid from 14C-POPC; type: biochemical; conditions: 14C-POPC substrate, 40° C., 60 min, various concentrations of Indoxam; FIG. 4
T1 sequence (P14555 21-144): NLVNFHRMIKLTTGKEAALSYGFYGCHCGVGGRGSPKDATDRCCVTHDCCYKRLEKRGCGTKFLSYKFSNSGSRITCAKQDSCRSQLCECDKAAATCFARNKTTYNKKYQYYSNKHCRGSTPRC
Protocol: (§1) Inhibitory activity against this novel type of human secretory type PLA2 was determined with Indoxam that is a 1-oxamoylindolidine derivative. It has already been reported that Indoxam inhibits the enzymatic activities of IIA type and IB type secretory type PLA2 (Yokota et al., Biochim. Biophys. Acta (1999) 1438, 213-222). The PLA2 activities were determined by the measurement of the quantity of released ^14C-oleic acid from ^14C-labeled 1-palmitoyl-2-oleoyl-phosphatidylcholine (POPC), according to the Draheim et al.'s method (J. Med. Chem., (1996) 39, 5159-5175). In the solution composed of 50 mM Tris-HCl (pH 8.0), 200 mM NaCl, 2 mM CaCl2, and 1 mg/ml bovine serum albumin, the substrates composed of 1 mM POPC (the mixture of about 100,000 cpm ^14C-POPC and unlabeled POPC) and 3 mM deoxycholic acid were incubated with each secretory PLA2 in the presence of various concentrations of Indoxam at 40° C. for 60 min. Then, the quantity of released ^4C-oleic acid was measured. Purified materials were used in the case with human IB type (2 ng), IIA type (10 ng) and X type (4 ng). Human V type, IID type and the secretory type PLA2 of this invention (IIE type) were prepared from the culture supernatant of CHO cells that stably express them.
(§2) The quantity of released ^14C-oleic acid from ^14C-POPC by each human secretory type PLA2 in the absence of Indoxam was regarded as 100% and the quantity of released ^14C-oleic acid in the presence of each concentration of Indoxam was shown as %.

[2] = molecular target: T2, human IID type secretory PLA2 (Homo sapiens, UniProt Q9UNK4); assay: as above; type: biochemical; conditions: 14C-POPC substrate, 40° C., 60 min, various concentrations of Indoxam; FIG. 4
T2 construct: made in house
T2 sequence (Q9UNK4 21-145): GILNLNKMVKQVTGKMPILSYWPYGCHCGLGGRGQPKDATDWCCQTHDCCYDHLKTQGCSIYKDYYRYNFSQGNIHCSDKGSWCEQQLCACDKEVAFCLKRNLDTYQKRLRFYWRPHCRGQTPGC
Protocol: as §1, §2

[3] = molecular target: T3, human secretory type PLA2 of this invention (IIE type) (Homo sapiens, UniProt Q9NZK7); assay: as above; type: biochemical; conditions: 14C-POPC substrate, 40° C., 60 min, various concentrations of Indoxam; FIG. 4
T3 construct: made in house
T3 sequence (Q9NZK7 20-142): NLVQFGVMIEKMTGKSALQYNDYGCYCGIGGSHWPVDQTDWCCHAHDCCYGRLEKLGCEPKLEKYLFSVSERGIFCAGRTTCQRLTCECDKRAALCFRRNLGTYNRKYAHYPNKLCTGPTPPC
Protocol: as §1, §2

[4] = molecular target: T4, IIA type secretory type PLA2 (Homo sapiens, UniProt P14555); conditions: already reported, Yokota et al., Biochim. Biophys. Acta (1999) 1438, 213-222; cited from earlier work
T4 sequence (P14555 21-144): T1 sequence (P14555 21-144)

[5] = molecular target: IB type secretory type PLA2 (Homo sapiens, UniProt P04054); conditions: already reported, Yokota et al., Biochim. Biophys. Acta (1999) 1438, 213-222; cited from earlier work
Chain of IB type secretory type PLA2 (P04054 23-148): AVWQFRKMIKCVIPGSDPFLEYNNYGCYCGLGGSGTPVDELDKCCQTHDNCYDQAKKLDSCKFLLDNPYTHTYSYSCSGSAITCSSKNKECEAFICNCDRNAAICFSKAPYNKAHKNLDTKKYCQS

With `CCc1c(C(=O)C(N)=O)c2c(OCC(=O)O)cccn2c1Cc1ccccc1-c1ccccc1` [Indoxam] the “inhibition of enzymatic activity of human IIA type PLA2” value [1] was “strongly inhibits”, the “inhibition of enzymatic activity of human IID type PLA2” value [2] was “strongly inhibits” and the “inhibition of enzymatic activity of human PLA2 of this invention (IIE type)” value [3] was “strongly inhibits”. The “inhibition of enzymatic activity of IIA type secretory type PLA2” value [4] was “inhibits” and the “inhibition of enzymatic activity of IB type secretory type PLA2” value [5] was “inhibits”.
